The assay deals with CEM cells HIV-1 protection, formazan growth assay. Description: NCI AIDS Antiviral Assay. The following applies: for IC50: measured here: growth of uninfected CEM cells. The method in brief:
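Human CEM cells, uninfected and HIV-1-infected, received five drug concentrations, and growth was read by soluble formazan assay. Compounds giving at least 50% protection were retested; reproducible 100% protection defined confirmed active.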

SMILES strings stand for the structures. Activity calls are given as the source filed them.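 Rule for the calls: active = compounds giving half or more protection of infected cells from virus-caused growth loss, again on retest; inactive = the rest.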 Where only a bound is given, the exact number is not on record here.

Drawing on PubChem BioAssay AID179 (DTP/NCI, 2004), this text covers EC50, IC50 and outcome for 72 compounds.

The term EC50 denotes the concentration that produces a half-maximal response. By IC50 is commonly meant the concentration that gives 50% inhibition. A high value points to weaker potency.

With `CCOP(=O)(OCC)C(C)(C)OC(=O)NC(F)(F)F`, the EC50 was > 200 µM and the concentration for half-maximal inhibition (IC50) is > 200 µM.
As for `CN1C(=O)CNS1(=O)=O`, the outcome was inactive.
On to `CCOP(=O)(OCC)C(N)Cc1ccc(OC)c(OC)c1` (stereo unspecified), for which the EC50 is > 200 µM and the IC50 is > 200 µM.
`COc1ccc(-n2cnc3c(NC(C)(C)C(=O)O)ncnc32)cc1`: the EC50 was > 200 µM and the IC50 was 126 µM.
For `N#Cc1ccc(-c2nc3c(N)ncnc3o2)cc1`, the EC50 is > 200 µM and the IC50 is > 200 µM.
Consider `CC1(CO)C(=O)OC12CCCCC2` (stereo unspecified), for which the EC50 is > 1350 µM and the IC50 was > 1350 µM.
For the compound `CCN(CC)C/C(C)=C(/c1ccccc1)c1ccccc1S(N)(=O)=O`, the EC50 is > 200 µM and the IC50 is > 200 µM.
As for `c1ccc2nn(C3CCCO3)nc2c1` (stereo unspecified), the EC50 is > 200 µM and the IC50 is > 200 µM.
Take `COC(=O)c1ccc(/C=C2\Oc3ccccc3C2=O)cc1`: the EC50 was > 200 µM and the IC50 is > 200 µM.
Consider `Cc1ccc2scc3c4ccccc4nc-3c2c1`, for which the EC50 was > 200 µM and the IC50 was found to be 0.479 µM.
Regarding `CCCCCCCCCCCCCCCCCC(=O)OC[C@H](COP(=O)(O)OCCNC(=O)CCC(=O)OCCC=C(c1cc(Cl)c(OC)c(C(=O)OC)c1)c1cc(Cl)c(OC)c(C(=O)OC)c1)OC(=O)CCCCCCCCCCCCCCCCC`, the EC50 was > 100 µM and the IC50 is > 100 µM.
For the compound `COc1ccc(-n2sc3ncc([N+](=O)[O-])cc3c2=O)cc1`, the EC50 is 9.33 µM and the IC50 was > 200 µM.
Consider `O=C(O)/C=C/c1ccccc1[N+](=O)[O-]`, for which the EC50 was > 257 µM and the IC50 was > 257 µM.
`Cc1nc(Nc2ccc(Cl)cc2)sc1C(=O)NNC(=O)C(=O)NN`: the EC50 is > 19.5 µM and the IC50 was > 19.5 µM.
`CCCCCCCCCCC(O)C1CCC(C(O)CCC(O)C2CCC(CCCCCCC[C@H](O)CC3=C[C@@H](C)OC3=O)O2)O1` (stereo partly specified): the EC50 is > 7.76 µM and the IC50 is 0.00245 µM.
For `COc1cc(N=Nc2cc(NC(C)=O)c(N=Nc3ccc(C(=O)O)cc3)cc2S(=O)(=O)O)c(C)cc1N=Nc1ccc(NC(=O)c2ccc(N)cc2)cc1C`, in that order: 14.1 µM and > 100 µM.
In the case of `O=C1/C(=C/c2cccc([N+](=O)[O-])c2)Cc2ccccc21`, the EC50 was > 200 µM and the IC50 was > 200 µM.
On to `CC(C)=CC[C@]12CCN[C@H]1N(S(=O)(=O)c1ccccc1)c1ccccc12`, for which the EC50 is > 200 µM and the IC50 stood at 30.9 µM.
For the compound `C=CCOC(C)(C)C1=CCC(C)CC1` (stereo unspecified), the EC50 was > 100 µM and the IC50 was > 100 µM.
`CCCCCCCCCC=C(c1cc(Br)c(O)c(C(=O)O)c1)c1cc(Br)c(O)c(C(=O)O)c1`: the EC50 is 141 µM and the IC50 was determined as 191 µM.
As to `CC(C)(C)[Si](C)(C)OC1C(C/[N+]([O-])=N\Nc2ccc([N+](=O)[O-])cc2)OC(n2ccc(=O)[nH]c2=O)C1O[Si](C)(C)C(C)(C)C` (stereo unspecified), the EC50 was > 200 µM and the IC50 stood at 1.95 µM.
Regarding `CC1=C(C(=O)NCc2ccccc2)C(c2ccc([N+](=O)[O-])cc2)C(C(=O)NCc2ccccc2)=C(C)N1`, the EC50 is > 14.5 µM and the 50% inhibitory concentration (IC50) was > 14.5 µM.
In the case of `COc1cc(C2c3cc4c(c(O)c3C[C@H]3COC(=O)[C@@H]23)OCO4)cc(OC)c1OC` (stereo partly specified), the EC50 is > 200 µM and the IC50 was determined as 0.468 µM.
`O=C1NC2C=CN(Cc3ccccc3)C=C2C(=O)N2CCCC12` (stereo unspecified): the EC50 was > 6.46 µM and the IC50 was > 6.46 µM.
Regarding `CCCCCCCCCCCCC(N=[N+]=[N-])C(=O)OCC1OC(n2cc(C)c(=O)[nH]c2=O)CC1O` (stereo unspecified), the EC50 was > 20.4 µM and the IC50 was > 20.4 µM.
`COC(=O)C(Cc1c(-c2[nH]c3ccccc3c2CC(NC(C)=O)C(=O)OC)[nH]c2ccccc12)NC(C)=O` (stereo unspecified): the EC50 was > 200 µM and the IC50 was > 200 µM.
As to `c1ccc2c(c1)[nH]c1c(N3CCOCC3)nnc(N3CCOCC3)c12`, the EC50 is > 200 µM and the 50% inhibitory concentration (IC50) is > 200 µM.
For `COc1ccc(C2NC(=S)N3C(c4ccc(OC)c(OC)c4)NC(=S)N23)cc1OC` (stereo unspecified), the EC50 is > 200 µM and the IC50 was > 200 µM.
For `BrC1=CCC23CC=C(Br)[C@H]4CC2(COC3)C[C@@H]1O4` (stereo partly specified), the EC50 was > 200 µM and the IC50 stood at 25.1 µM.
For `O[C@H]1[C@H]2c3cc4c(cc3CN3CCC(C[C@@H]1O)[C@H]23)OCO4` (stereo partly specified), the outcome was inactive.
Take `Cn1[nH]c2[nH]c(=S)sc(=S)c2c1=O`: the EC50 is > 200 µM and the IC50 was > 200 µM.
Turning to `Cc1ccc(/C(O)=C/C(=O)C(=O)NC23CC4CC(CC(C4)C2)C3)cc1`, the EC50 was > 200 µM and the IC50 stood at 77.6 µM.
Turning to `Cc1ccc(-n2[nH]nc(C(N)=O)c2=O)cc1`, the EC50 was > 200 µM and the IC50 was > 200 µM.
With `C[N+]1=C(c2cccnc2/C=N/O)OCC1(C)C`, the EC50 was > 692 µM and the IC50 amounted to 417 µM.
In the case of `O=C1OC(CC(=O)c2ccc(Cl)cc2Cl)C(Cl)=C1Cl` (stereo unspecified), the EC50 is > 148 µM and the IC50 turned out to be 53.7 µM.
For the compound `COC(=O)[C@@H]1C=C[C@H](NC(C)=O)C1`, the result was inactive.
On to `COc1cc(/C=C(\C#N)c2ccc([N+](=O)[O-])cc2)ccc1O`, for which the EC50 is > 151 µM and the IC50 turned out to be 27.5 µM.
As to `COC(=O)c1ccccc1/C=C1/Cc2ccccc2C1=O`, the EC50 was > 200 µM and the IC50 is > 200 µM.
Consider `CC[N+](C)(C)C1=C([O-])C(F)(F)C1=O`, for which the EC50 is > 200 µM and the IC50 is > 200 µM.
As to `Cc1c([N+](=O)[O-])c(=O)oc2c(C)c3occc(=O)c3cc12`, the EC50 was > 6.92 µM and the IC50 is > 6.92 µM.
For `CC(=O)NC1CCC(NC(=O)OC(C)(C)C)C(NC(=O)OC(C)(C)C)C1` (stereo unspecified), the EC50 is > 200 µM and the IC50 is > 200 µM.
With `CCOC(=O)c1ccc(CS(=O)(=O)c2ccccc2)cc1`, the EC50 is > 23.4 µM and the IC50 was > 23.4 µM.
As to `COc1cc(/C=C(\C#N)c2ccccn2)cc(Br)c1O`, the EC50 is > 200 µM and the 50% inhibitory concentration (IC50) amounted to 28.2 µM.
As for `CCC(/C(=N\Nc1c(Cl)cc(Cl)cc1Cl)c1ccccc1)n1ccnc1C` (stereo unspecified), the result was inactive.
In the case of `COc1ccc(-c2c(C#N)c(N)nc3c2CCS(=O)(=O)c2ccccc2-3)cc1`, the EC50 is > 200 µM and the IC50 was > 200 µM.
With `COc1cc2c(cc1OC)C(c1ccccc1CCCCl)=NCC2`, the EC50 was > 200 µM and the IC50 stood at 75.9 µM.
For the compound `C=C(C)C1CC2=C(C(=O)OC)C=C(O2)C(C(=C)C)[C@@H]2OC(=O)/C(=C\C1O)[C@H]2N(C)C` (stereo partly specified), the EC50 was > 20 µM and the IC50 amounted to 5.01 µM.
For `CCOC(=O)c1c(SCC#N)n(-c2ccccc2)c(=S)n(-c2ccccc2)c1=O`, in that order: > 200 µM and 13.8 µM.
Regarding `NN1CCOC1=O`, the EC50 was > 200 µM and the IC50 was > 200 µM.
For `Cc1cc(C)c(C2=NO[C@H]3c4ccccc4OC[C@@H]23)c(C)c1`, the EC50 is > 24.5 µM and the IC50 was > 24.5 µM.
As to `CCN(CC)c1c(-c2ccccc2)nnc2c3ccccc3nn12`, the EC50 is > 200 µM and the IC50 amounted to 24 µM.
Turning to `C=CC1(CC)/C(=N\O)C(CC)(CC)C(=O)N1O` (stereo unspecified), the EC50 is > 1050 µM and the IC50 was > 1050 µM.
Consider `Fc1cccc(C2SCc3nc4cc5ccccc5cc4n32)c1` (stereo unspecified), for which the EC50 was > 200 µM and the IC50 is > 200 µM.
Turning to `O=C(O)CN(CCN(CC(=O)O)CC(=O)O)CC(=O)O`, the EC50 was > 200 µM and the IC50 was > 200 µM.
Take `CN(C)c1ccc(/C=C(\NC(=O)c2ccccc2)C(=O)Nc2ccccc2C(=O)N/N=C/c2ccc(N(C)C)cc2)cc1`: the EC50 is > 25.1 µM and the IC50 was > 25.1 µM.
With `CC1(C)c2ccccc2C(=O)C12CCC(=O)CC2`, the EC50 was > 200 µM and the IC50 is > 200 µM.
With `COc1cccc([B-]23OCC[N+]2(CNC(=O)C2=C(O)C4(O)C(=O)C5=C(O)c6c(O)cccc6C(C)(O)C5CC4C(N(C)C)C2=O)CCO3)c1` (stereo unspecified), the EC50 is > 38 µM and the IC50 was > 38 µM.
For `CCCCCCCCCC1CC(=O)Oc2cccc(O)c21` (stereo unspecified), the EC50 was > 25.1 µM and the IC50 is > 25.1 µM.
Take `COc1ccc2c(c1)c1c(n2CCN2CCCCC2)-c2ccccc2CC1`: the EC50 was > 200 µM and the IC50 came to 13.2 µM.
Regarding `COc1cc(/C=C/C(=O)c2sc(NNC(C)=O)nc2C)ccc1O`, the EC50 was > 20.9 µM and the IC50 is > 20.9 µM.
As for `CS(C)=O`, the EC50 was > 200 µM and the IC50 was > 200 µM.
For `N#CC(C(=O)CCC(=O)Nc1cccc(C(F)(F)F)c1)c1ccc(Cl)cc1` (stereo unspecified), the result was inactive.
Regarding `COc1cccc(C=C2N=C(C)N(n3c(-c4ccccc4)nc4ccccc4c3=O)C2=O)c1`, the EC50 was > 200 µM and the half-inhibitory concentration (IC50) stood at 72.4 µM.
As to `CCN1CCN(c2nc3ccccc3c3c2CCOc2ccccc2-3)CC1`, the outcome was inactive.
With `CC1Oc2c(c(=O)oc3ccccc23)[C@@]1(C)CC1C[C@H](C)C(=O)O1` (stereo partly specified), the EC50 was > 200 µM and the IC50 stood at 24.5 µM.
For `C=C1CC(COc2ccc3c(C)c(C)c(=O)oc3c2C)(c2ccccc2)OC1=O` (stereo unspecified), in that order: > 200 µM and 0.933 µM.
As to `O=[N+]([O-])c1ccc(COc2cccc3cccnc23)cc1`, the EC50 is > 200 µM and the IC50 came to 2.14 µM.
For `CC[n+]1c(/C=C/c2ccc(N(CCCl)CCCl)cc2)ccc2cc(I)ccc21`, the result was inactive.
Consider `O=c1c2cc([N+](=O)[O-])cnc2sn1-c1ccc(Oc2ccccc2)cc1`, for which the concentration giving a half-maximal response (EC50) is 37.2 µM and the half-maximal inhibitory concentration (IC50) is 43.7 µM.
`CCC1=C(c2cccc(OC(C)=O)c2)C(C)c2ccc(OC(C)=O)cc21` (stereo unspecified): the EC50 was > 200 µM and the IC50 came out at 7.41 µM.
For `CN(CO)c1nc(N(C)CO)nc(N(C)CO)n1`, in that order: > 26.3 µM and 24 µM.
Turning to `COc1ccccc1NC(=O)/C(C=NC(=S)C(N)=S)=C(\C)O`, the result was inactive.
